Assay results published in patent US8062859B2, “Method for screening anticancer substances, set or kit for implementing said method” (Centre National de la Recherche Scientifique (CNRS), priority 2005, dated 2011).

Key:
Format in all cases: cell-based
[1] = tested on: SW620 metastatic cell line; assay: Formation of E-cadherin type intercellular junctions (immunofluorescent labelling of E-cadherin)
Description: (§1) 1. Protocol for Immunofluorescent Labelling of e-Cadherin 1—The cells are plated in 6-well plates, each well containing 3 glass coverslips 10 mm in diameter. 2—Place the cells in 0% Serum for 18 to 24 hours then treat them or not with Y27 10 μM+PDGF 5 ng/ml for 36 to 48 h. 3—Fix the cells for 10 minutes with formalin (3.7% formaldehyde in PBS). 4—Saturation, 10 minutes PBS-BSA 5—Incubation of the primary antibody, diluted to 1:500 in PBS-BSA, 2 hours at 37° C. (Mouse anti E-cadherin, ZYMED, ref: 13-1700) 6—2 rapid washes in PBS-0.1% Tween 7—Incubation of the secondary antibody (Alexa Fluor® 488 F(ab′)2 fragment of goat anti mouse IgG, Molecular Probes ref: A-11017), diluted to 1:2000 in PBS-BSA, 30 minutes at 37° C. 8—2 rapid washes in PBS-0.1% Tween 9—Mounting in Mowiol medium between the slide and the coverslip.

[2] = tested on: CoLo205 metastatic cell line; assay: Localisation of E-cadherin at intercellular junctions (immunofluorescent labelling); settings: CoLo205, Y-27632 10 μM for 48 hours, FIG. 1
Description: as §1

[3] = tested on: SKCo-1 metastatic cell line; assay: as above; settings: SKCo-1, Y-27632 10 μM for 48 hours, FIG. 1
Description: as §1

[4] = tested on: SW620 metastatic cell line; assay: Spreading ability of the cells (flat versus round phenotype)
Description: FIG. 2 illustrates the effect of the treatment of metastatic cells of the SW620 cell line by the inhibitor Y-27632 on the spreading ability of the cells (FIG. 2A) and on the formation of E-cadherin type adhesion junctions (FIG. 2B). In FIGS. 2 A and 2 B: on the left: control cells without inhibitor; on the right: cells incubated with Y-27632. On the x-axis: the percentage of flat cells (FIG. 2A) or the percentage of cells forming E-cadherin type intercellular junctions (FIG. 2B). 2—Place the cells in 0% Serum for 18 to 24 hours then treat them or not with Y27 10 μM+PDGF 5 ng/ml for 36 to 48 h.

[5] = tested on: SW620 metastatic cell line; assay: Invasion test (Matrigel, FluoroBlock inserts)
Description: 2. Invasion Test 1—On D-2, thaw the Matrigel at 4° C. all night 2—On D-1 measure the Matrigel into insert chambers: Put all the necessary material on ice (Matrigel, culture medium, tips, eppendorfs, etc. . . . ). Put the FluoroBlock inserts (FALCON, ref: 351152) in the 24-well plates (FALCON, ref: 353504). Dilute the Matrigel to 2 mg/ml in cold serumless medium (if the cells are to be subjected to a treatment X, include the product in the Matrigel, e.g.: Y 27632) Aliquot 100 μl of 2 mg/ml Matrigel per insert avoiding creating bubbles. Leave O/N at 37° C. in a humid atmosphere (in an incubator) 3—On D day, plate the cells on the Matrigel: First put 700 μl of 10% serum medium in a 24-well plate and transfer the inserts to this plate. Trypsinate the cells (previously treated or not . . . ) and take them up in 2% serum medium. Plate 50 000 cells per insert in 200 μl of 2% serum medium on the Matrigel (optionally put Y27632 into the plated cells). 4—The migration time varies depending on the cell type but generally allowing them to migrate for 8 hours fixing a point every 2 hours seems suitable. To fix them, transfer the inserts to a 24-well plate containing 1 ml of formalin (3.7% formaldehyde in PBS), suck up the culture medium inside the chambers and also add formalin (very important, prevents the cells from continuing to migrate in the Matrigel). […] Read the OD at 490 nm.

## C[C@@H](N)[C@H]1CC[C@H](C(=O)Nc2ccncc2)CC1 [Y-27632]
[1]; SW620, Y-27632 10 μM for 48 hours, FIG. 1
  location of E-cadherin at the junctions (in words): causes correct relocation of E-cadherin at the junctions
[1]; SW620 cells after treatment with Y-27632, FIG. 2B (control 22%)
  percentage of cells capable of forming E-cadherin type junctions: 52%
[1]; SW620 cells, FIG. 1B and FIG. 2B
  formation of E-cadherin dependent junctions (in words): enhances
[2]
  location of E-cadherin at the junctions (in words): causes correct relocation of E-cadherin at the junctions
[3]
  location of E-cadherin at the junctions (in words): causes correct relocation of E-cadherin at the junctions
[4]; SW620 cells after treatment with Y-27632, FIG. 2A (control 30%)
  percentage of flat cells: 90%
[4]; SW620 cells after treatment with Y-27632, FIG. 2A (control 70%)
  percentage of cells retaining a round phenotype: 10%
[4]; SW620 cells, FIG. 2A
  spreading ability of the cells (in words): enhances the spreading ability
[5]; SW620 cells after treatment with Y-27632, FIG. 3B
  level of invasion, compared with CoN normal colon cells (in words): very low level of invasion, comparable to that of CoN normal colon cells
[5]; SW620 cells treated with Y-27632, FIG. 3B
  invasive capacity (in words): drastically reduce their invasive capacity
